The target in assay [1] is human wild type FGFR2 (Homo sapiens (Human), UniProt P21802). The assay is described as follows: FGFR2 pFGFR Cell Assay. It counts as cell-based. The following applies: HEK-293 cells, 1 hour compound, 30 ng/ml human FGF-acidic, ELISA. The procedure: (§1) HEK-293 cells transfected with dox-inducible human wild type FGFR2 (SEQ ID NO: 3) were plated in a collagen or poly-D-lysine coated 96 well flat bottom plates at 4×10^5 cells/well in complete DMEM medium containing 10% FBS and 1 μg/ml doxycycline and allowed to attach for 24 h at 37° C., 5% CO2. Cells were treated with compound using 1:3 serial dilutions with a maximum final concentration of 5 μM. Compound was incubated on cells for 1 hour at 37° C., 5% CO2. Cells were then stimulated with a final concentration of 30 ng/ml human FGF-acidic (R&D Systems Cat number 232-FA/CF) for 5 minutes at 37° C., 5% CO2. Medium was removed and cells were lysed with lysis buffer containing phosphatase and protease inhibitors. Phospho FGFR2 was measured by ELISA (R&D Systems cat. no. DYC684). The ELISA captures total FGFR2 and detects total phospho tyrosine. Optical density was measured for each well using a Versamax reader at a wavelength of 450 nm. 100 POC was determined using no test compounds and 0 POC was determined using a control compound. The POC values were fit to a 4-parameter logistic curve as a function of the concentration of the compound, and the IC50 value is the point where the curve crosses 50 POC.
Chain of human wild type FGFR2 (P21802 22-821): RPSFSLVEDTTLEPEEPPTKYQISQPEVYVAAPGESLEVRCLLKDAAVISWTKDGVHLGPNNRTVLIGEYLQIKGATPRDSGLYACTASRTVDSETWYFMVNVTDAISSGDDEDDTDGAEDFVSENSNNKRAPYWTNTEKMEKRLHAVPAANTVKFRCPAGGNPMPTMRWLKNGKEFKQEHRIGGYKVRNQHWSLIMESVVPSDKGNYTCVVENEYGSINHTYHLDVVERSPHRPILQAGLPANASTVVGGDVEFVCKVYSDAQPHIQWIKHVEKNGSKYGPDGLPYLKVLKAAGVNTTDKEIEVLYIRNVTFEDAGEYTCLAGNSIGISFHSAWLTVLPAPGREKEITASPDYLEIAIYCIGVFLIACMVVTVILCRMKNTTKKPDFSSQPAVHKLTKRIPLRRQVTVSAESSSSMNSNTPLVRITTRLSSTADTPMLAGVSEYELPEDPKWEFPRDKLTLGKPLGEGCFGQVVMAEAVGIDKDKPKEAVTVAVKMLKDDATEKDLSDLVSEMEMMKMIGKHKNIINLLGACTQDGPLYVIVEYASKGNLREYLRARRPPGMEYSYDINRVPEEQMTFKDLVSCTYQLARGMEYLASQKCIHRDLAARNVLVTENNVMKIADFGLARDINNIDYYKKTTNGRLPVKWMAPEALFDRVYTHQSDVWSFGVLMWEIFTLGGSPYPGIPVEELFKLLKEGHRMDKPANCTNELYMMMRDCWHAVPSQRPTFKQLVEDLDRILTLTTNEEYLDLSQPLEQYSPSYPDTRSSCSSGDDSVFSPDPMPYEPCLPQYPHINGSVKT

The target in assay [2] is dephosphorylated FGFR2 (Homo sapiens (Human), UniProt P21802). The experiment in a line: FGFR Enzyme Binding Assay (HTRF tracer displacement), FGFR2. Conditions: 5 nM dephosphorylated FGFR2, 60 minute incubation at 22° C.; read-out: FGFR2 Enz Binding IC50. The procedure:
The potency of compounds inhibiting human isoforms of FGFR kinase was determined using Life Technologies' Homogeneous Time Resolved Fluorescence (HTRF)-based binding assay technology. An incubation was conducted with either 5 nM dephosphorylated FGFR1 (Array Biopharma, p1702; SEQ ID NO: 1, amino acids 458 to 765, dephosphorylated by co-expression with PTP1b (protein tyrosine phosphatase 1B)), 5 nM dephosphorylated FGFR2 (Life Technologies, Cat. No. PV4106 that had been dephosphorylated with Lambda protein phosphatase (New England Biolabs, cat #P0753)) or 5 nM phosphorylated FGFR3 (Array Biopharma, p1836; SEQ ID NO: 5, amino acids 449 to 759), 50 nM Kinase Tracer 236 (Life Technologies Cat. No. PR9078A), 2 nM Biotin-anti-6HIS (Life Technologies Cat. No. PV6090) and 2 nM Europium-Streptavidin (Life Technologies Cat. No. PV6025) along with test compound in a buffer consisting of 50 mM HEPES ((4-(2-hydroxyethyl)-1-piperazineethanesulfonic acid, pH 7.5), 5 mM MgCl2, 0.005% Triton X-100, 1 mM DTT, 1 mM NaVO4 and 2% DMSO in a final volume of 12 μL Compounds were typically prepared as a 3-fold or 4-fold serial dilution in DMSO and added to the assay to give the appropriate final concentration. After a 60 minute incubation at 22° C., the extent of tracer displacement was determined using a PerkinElmer EnVision multimode plate reader via HTRF dual wavelength detection, and the percent of control (POC) was calculated using a ratiometric emission factor. One hundred POC was determined using no test compound, and 0 POC was determined in the presence of 1 μM of an appropriate control inhibitor. A 4-parameter logistic curve was fit to the POC values as a function of the concentration of compound, and the IC50 value was the point where the best-fit curve crossed 50 POC.
For orientation: Time-resolved FRET reads energy transfer from a long-lived donor to a nearby acceptor.

For assay [3], the target named is FGFR3 (Homo sapiens (Human), UniProt P22607). The experiment in a line: FGFR Enzyme Activity Assay (LanthaScreen TR-FRET), FGFR3. It counts as biochemical. The following applies: 25 μM ATP, 10 minute incubation; read-out: FGFR3 Enz FRET IC50. The procedure:
FGFR3 kinase activity was measured by the Invitrogen LanthaScreen™ Assay technology which directly measures the amount of substrate phosphorylation by TR-FRET using a flourescently-labeled peptide and Europium-labeled antibody. Briefly, 750 pM N-terminal GST-HIS6 fusion protein with a 3C cleavage site recombinant human FGFR3 (amino acids R397-T806) (ProQinase Cat. No. 1068-0000-1) was incubated with 100 nM Alexa Fluor® 647-Poly-GT Peptide Substrate (Life Technologies Cat. No. PV5836) and 25 μM ATP along with test compound in a buffer consisting of 250 mM HEPES, 25 mM MgCl2, 0.05% TritonX-100, pH 7.5, and 2% DMSO. Compounds were typically prepared in a threefold serial dilution in DMSO and added to the assay to give the appropriate final concentration. After a 10 minute incubation at 22° C., an equal volume of 2 nM LanthaScreen® Eu-PY20 Antibody (Life Technologies Cat. No. PV5691) and 10 mM EDTA were added to quench the kinase reaction and start the detection reaction. After an additional 60 minute incubation at 22° C., the reaction was measured using a PerkinElmer EnVision multimode plate reader via TR-FRET dual wavelength detection, and the percent of control (POC) calculated using a ratiometric emission factor. 100 POC was determined using no test compounds and 0 POC was determined using no enzyme. The POC values were fit to a 4-parameter logistic curve as a function of the concentration of the compound, and the IC50 value is the point where the curve crosses 50 POC.

Assay [4] addresses human wild type FGFR3 (Homo sapiens (Human), UniProt P22607). The experiment in a line: FGFR3 pFGFR Cell Assay. The following applies: HEK-293 cells, 1 hour compound, 100 ng/ml human FGF-acidic, ELISA. It counts as cell-based. The protocol:
as §1, with “FGFR3” for “FGFR2”, “5)” for “3)”, “top” for “maximum”, “100” for “30”, “FGF-acidic” for “FGF-acidic (R&D Systems Cat number 232-FA/CF)”, “cat DYC2719).” for “cat. no. DYC684).”

Each structure is given as a SMILES string.

Chain of FGFR3 (P22607 397-806): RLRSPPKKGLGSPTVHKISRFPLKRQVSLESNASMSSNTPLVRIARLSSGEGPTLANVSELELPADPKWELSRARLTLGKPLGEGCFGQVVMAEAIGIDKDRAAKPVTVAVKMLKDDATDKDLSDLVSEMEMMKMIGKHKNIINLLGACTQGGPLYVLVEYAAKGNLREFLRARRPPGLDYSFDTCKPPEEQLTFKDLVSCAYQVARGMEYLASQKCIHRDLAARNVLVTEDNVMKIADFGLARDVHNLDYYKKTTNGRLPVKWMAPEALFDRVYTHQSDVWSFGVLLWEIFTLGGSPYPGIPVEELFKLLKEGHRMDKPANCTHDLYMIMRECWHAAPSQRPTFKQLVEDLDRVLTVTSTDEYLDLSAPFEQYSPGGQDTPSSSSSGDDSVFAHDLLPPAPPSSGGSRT
Chain of dephosphorylated FGFR2 (P21802 22-821): as the sequence (P21802 22-821) above
Chain of human wild type FGFR3 (P22607 23-806): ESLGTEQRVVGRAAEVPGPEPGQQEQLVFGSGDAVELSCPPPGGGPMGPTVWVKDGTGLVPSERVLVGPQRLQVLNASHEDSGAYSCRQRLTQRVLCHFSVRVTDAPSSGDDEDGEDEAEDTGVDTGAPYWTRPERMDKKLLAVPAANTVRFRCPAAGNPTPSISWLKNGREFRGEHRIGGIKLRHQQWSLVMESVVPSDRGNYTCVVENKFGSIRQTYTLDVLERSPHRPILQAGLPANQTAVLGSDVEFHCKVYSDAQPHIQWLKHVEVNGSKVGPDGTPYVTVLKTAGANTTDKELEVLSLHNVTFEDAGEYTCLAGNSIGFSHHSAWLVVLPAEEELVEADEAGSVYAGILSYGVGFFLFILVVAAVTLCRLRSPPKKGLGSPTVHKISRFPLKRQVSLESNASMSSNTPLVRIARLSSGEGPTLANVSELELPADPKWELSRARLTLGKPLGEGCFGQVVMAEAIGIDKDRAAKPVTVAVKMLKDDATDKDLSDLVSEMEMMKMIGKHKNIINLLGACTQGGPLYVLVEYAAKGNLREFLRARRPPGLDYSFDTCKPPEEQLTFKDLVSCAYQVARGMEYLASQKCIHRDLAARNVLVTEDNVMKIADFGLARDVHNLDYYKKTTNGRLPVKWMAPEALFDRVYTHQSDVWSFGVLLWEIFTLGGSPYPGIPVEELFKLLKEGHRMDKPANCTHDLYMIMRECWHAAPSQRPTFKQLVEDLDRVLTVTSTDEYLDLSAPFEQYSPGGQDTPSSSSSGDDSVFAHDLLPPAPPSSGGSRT

The IC50 is the point on the concentration scale where inhibition reaches its midpoint. `C=CC(=O)N1CC(C(=O)N2CCC(n3cc(-c4cnc5ccc(Nc6cc(OC)cc(OC)c6)cc5n4)cn3)CC2)C1` [Example 1, 1-(3-(4-(4-(7-((3,5-dimethoxyphenyl)amino)quinoxalin-2-yl)-1H-pyrazol-1-yl)piperidine-1-carbonyl)azetidin-1-yl)prop-2-en-1-one]: the IC50 in assay [1] came out at 0.14 µM; in assay [2], 0.003 µM; in assay [3], 0.009 µM; in assay [4], 0.035 µM.

Turning to `C=CC(=O)N1CC(F)(C(=O)N2CCC(n3cc(-c4cnc5ccc(Nc6cc(OC)cc(OC)c6)cc5n4)cn3)CC2)C1` [Example 4, 1-(3-(4-(4-(7-((3,5-dimethoxyphenyl)amino)-quinoxalin-2-yl)-1H-pyrazol-1-yl)piperidine-1-carbonyl)-3-fluoro-azetidin-1-yl)prop-2-en-1-one], the IC50 in assay [2] is 0.004 µM; in assay [3], 0.01 µM; in assay [4], 0.017 µM.

For the compound `C=CC(=O)N1CC(C(=O)N2CCN(c3ccc(-c4cnc5ccc(Nc6cc(OC)cc(OC)c6)cc5n4)cn3)CC2)C1` [Example 5, 1-(3-(4-(5-(7-((3,5-dimethoxyphenyl)amino)-quinoxalin-2-yl)pyridin-2-yl)piperazine-1-carbonyl)azetidin-1-yl)-prop-2-en-1-one], the IC50 in assay [1] came to 0.486 µM; in assay [3], 0.272 µM.

For `COc1cc(Nc2ccc3ncc(-c4ccc(N5CCN(C(=O)C6(F)CN(C(=O)/C=C/CN(C)C)C6)CC5)nc4)nc3c2)cc(OC)c1` [Example 7, (E)-1-(3-(4-(5-(7-((3,5-dimethoxyphenyl)amino)-quinoxalin-2-yl)pyridin-2-yl)piperazine-1-carbonyl)-3-fluoroazetidin-1-yl)-4-(dimethylamino)but-2-en-1-one], the results for the IC50 in assay [1], in assay [2] and in assay [3] were 0.182 µM, 0.018 µM and 0.277 µM, respectively.

For `COc1cc(Nc2ccc3ncc(-c4cnn(C5CCN(C(=O)C6(F)CN(C(=O)/C=C/CN(C)C)C6)CC5)c4)nc3c2)cc(OC)c1` [Example 10, (E)-1-(3-(4-(4-(7-((3,5-dimethoxyphenyl)amino)-quinoxalin-2-yl)-1H-pyrazol-1-yl)piperidine-1-carbonyl)-3-fluoro-azetidin-1-yl)-4-(dimethylamino)but-2-en-1-one], the IC50 in assay [1] is 0.028 µM; in assay [2] it was 0.006 µM; in assay [3], 0.016 µM.

As for `COc1cc(Nc2ccc3ncc(-c4cnn(C5CCN(C(=O)C6(F)CN(C(=O)/C=C/CN(C)C)C6)CC5)c4C)nc3c2)cc(OC)c1` [Example 17, (E)-1-(3-(4-(4-(7-((3,5-dimethoxyphenyl)amino)-quinoxalin-2-yl)-5-methyl-1H-pyrazol-1-yl)piperi-dine-1-carbonyl)-3-fluoroazetidin-1-yl)-4-(dimethylamino)but-2-en-1-one], the IC50 in assay [1] was 0.17 µM; in assay [3], 0.048 µM.

In the case of `COc1cc(Nc2ccc3ncc(-c4cn(C5CCN(C(=O)C6(F)CN(C(=O)/C=C/CN(C)C)C6)CC5)nc4C)nc3c2)cc(OC)c1` [Example 22, (E)-1-(3-(4-(4-(7-((3,5-dimethoxyphenyl)amino)-quinoxalin-2-yl)-3-methyl-1H-pyrazol-1-yl)-piperidine-1-carbonyl)-3-fluoroazetidin-1-yl)-4-(dimethylamino)but-2-en-1-one], the values for the IC50 in assay [1], in assay [2] and in assay [3] were 0.301 µM, 0.019 µM and 0.079 µM, respectively.

For the compound `C=CC(=O)N1CC(OC)(C(=O)N2CCC(n3cc(-c4cnc5ccc(Nc6cc(OC)cc(OC)c6)cc5n4)cn3)CC2)C1` [Example 24, 1-(3-(4-(4-(7-((3,5-dimethoxyphenyl)amino)-quinoxalin-2-yl)-1H-pyrazol-1-yl)piperidine-1-carbonyl)-3-methoxy-azetidin-1-yl)prop-2-en-1-one], the IC50 was 0.049 µM in assay [1], 0.008 µM in assay [2] and 0.024 µM in assay [3].

In the case of `C=CC(=O)N1CC(O)(C(=O)N2CCC(n3cc(-c4cnc5ccc(N(C)c6cc(OC)cc(OC)c6)cc5n4)cn3)CC2)C1` [Example 27, 1-(3-(4-(4-(7-((3,5-dimethoxyphenyl)(methyl)amino)quinoxalin-2-yl)-1H-pyrazol-1-yl)piperidine-1-carbonyl)-3-hydroxyazetidin-1-yl)prop-2-en-1-one], the results for the IC50 in assay [1], in assay [2] and in assay [3] were 0.037 µM, 0.003 µM and 0.002 µM, respectively.

Turning to `C#CCN(c1cc(OC)cc(OC)c1)c1ccc2ncc(-c3cnn(C4CCN(C(=O)C5(F)CN(C(=O)/C=C/CN(C)C)C5)CC4)c3)nc2c1` [Example 28, (E)-1-(3-(4-(4-(7-((3,5-dimethoxyphenyl)(prop-2-yn-1-yl)amino)quinoxalin-2-yl)-1H-pyrazol-1-yl)piperidine-1-carbonyl)-3-fluoroazetidin-1-yl)-4-(dimethylamino)but-2-en-1-one], the IC50 in assay [1] was 0.006 µM; in assay [2], 0.003 µM; in assay [3], 0.006 µM.

Turning to `C=CC(=O)N1CC(CN2CCC(n3cc(-c4cnc5ccc(Nc6cc(OC)cc(OC)c6)cc5n4)cn3)CC2)(OC)C1` [Example 29, 1-(3-((4-(4-(7-((3,5-dimethoxyphenyl)amino)quinoxalin-2-yl)-1H-pyrazol-1-yl)piperidin-1-yl)methyl)-3-methoxyazetidin-1-yl)prop-2-en-1-one], the IC50 in assay [1] came out at 0.056 µM; in assay [2] it was 0.005 µM; in assay [3], 0.04 µM.

For `C=CC(=O)N1CC(CN2CCC(n3cc(-c4cnc5ccc(Nc6cc(OC)cc(OC)c6)cc5n4)cn3)CC2)C1` [Example 30, 1-(3-((4-(4-(7-((3,5-dimethoxyphenyl)amino)quinoxalin-2-yl)-1H-pyrazol-1-yl)piperidin-1-yl)methyl)azetidin-1-yl)prop-2-en-1-one], the results for the IC50 in assay [1], in assay [2] and in assay [3] were 0.062 µM, 0.005 µM and 0.026 µM, respectively.

The values are drawn from patent US12351571B2, “Substituted quinoxaline compounds as inhibitors of FGFR tyrosine kinases” (ARRAY BIOPHARMA INC., priority 2018, dated 2025).
